Source: patent publication US20260335450A1, “TARGETED PROTEIN DEGRADATION THROUGH SITE-SPECIFIC RECRUITMENT OF UBIQUITIN LIGASE” (University of Pittsburgh - Of the Commonwealth System of …, priority 2023, published 2026)
Read-outs that look alike come from different tables or passages of the source. Residues, ends and D or L forms follow the SMILES beside them. *: point of attachment. Cbz = O=C(OCc1ccccc1)*

What was measured:
mCherry-EGFP-Y151TetF [1] = experiment: Degradation mechanism: proteasome inhibitor pre-treatment; type: cell-based; conditions: 10 μM inhibitor, 4 h pre-incubation; then 10 μM sTCO-PEG2-CRBN overnight
Description: FIGS. 16A-16B. Degradation mechanism of sTCO-PEG2-CRBN. FIG. 16A) The degradation of mCherry-EGFP-Y151TetF was reduced when cells were pre-treated with proteasome inhibitor MG132 or epoxomicin, validating that sTCO-PEG2-CRBN induced degradation is mediated by the proteasome.
For mechanistic insight into sTCO-PEG2-CRBN degradation (FIG. 16) cells were transfected as described above. A 10 μM working solution of media containing either MG132 or epoxomicin was made by adding 1 μL of the respective proteasome inhibitor (10 mM in DMSO) into 999 μL of complete medium. Following removal of TetF, 200 μL of media supplemented with either MG132, epoxomicin, or DMSO was added to each well and the cells were incubated for 4 h. Next, a solution containing 50 μM of sTCO-PEG2-CRBN was made by adding 5 μL of sTCO-PEG2-CRBN (10 mM in DMSO) into 995 μL of complete medium. Following the allotted time for proteasome inhibitor incubation, 50 μL of 50 μM sTCO-PEG2-CRBN was added directly to each well, for a final volume of 250 μL and final concentration of 10 μM of sTCO-PEG2-CRBN. The cells were then incubated overnight at 37° C. with 5% CO2 before lysis and western blot analysis.

[2] = cited from earlier work
MKP3 = conditions: cited from earlier work
DUSP1 = conditions: cited from earlier work
mCherry-EGFP-Y151TetF [3] = experiment: Degradation mechanism: thalidomide-OH pretreatment, cereblon-mediated degradation; type: cell-based; conditions: pretreatment with 100 µM of Thal-OH, then sTCO-PEG2-CRBN
mCherry-EGFP-G134TetF = experiment: In cellulo bioconjugation quantified with sTCO-CA and HaloTag; type: cell-based; conditions: sTCO-CA then HaloTag
Description: (§1) FIGS. 1A-1B. Experimental workflow for the quantification of bioconjugation to UAA-bearing proteins expressed in cells. Following expression of the POI bearing a UAA at any surface position (e.g., A-E), the FIG. 1A) sTCO-chloroalkane ligand or FIG. 1B) sTCO-E3 ligase ligand, is added to the media and undergoes a selective bioconjugation with the UAA. Excess ligand is washed away and cells are FIG. 1A) lysed or FIG. 1B) incubated with sTCO-chloroalkane then lysed. The lysate is incubated with HaloTag protein and the bioconjugation is quantified via western blot.
(§2) Before comparing the degradation of different mCherry-EGFP mutants, validating the extent of bioconjugation to TetF at each position was required. A method for quantifying in cellulo protein bioconjugation that utilizes a strained trans-cyclooctene chloroalkane (sTCO-CA) to react with TetF and subsequently dimerize with the self-labeling enzyme, HaloTag, was previously […]. Using this technique, the extent of bioconjugation mCherry-EGFP-I129TetF (~90%) and mCherry-EGFP-G134TetF (~55%, FIG. 4D) was quantified. Bioconjugation to two new mCherry-EGFP-TetF mutants using the same method was also quantified (FIG. 7). […] By determining the extent of bioconjugation to TetF mutants across the surface of mCherry-EGFP, variations in degradation due to incomplete bioconjugation could be evaluated. […]

mCherry-EGFP-I129TetF = experiment: as above; type: cell-based; conditions: sTCO-CA then HaloTag
Description: as §1, §2

Question: With CC[C@H](C)[C@H](NC(=O)[C@H]([C@@H](C)CC)N(C)C(C)=O)C(=O)N[C@H](C(=O)N[C@@H](CC(C)C)C(=O)[C@@]1(C)CO1)[C@@H](C)O [epoxomicin] as the compound, how does the “effect of proteasome inhibitor pre-treatment on sTCO-PEG2-CRBN induced degradation” value (mCherry-EGFP-Y151TetF [1]) read?
Answer: Its value is “reduced”.

Question: For O=C(O)CC1CC2C=CC1C2 (stereo not drawn) [h], which Second-order rate constant ([2]; Aqueous solvent) is on record?
Answer: The Second-order rate constant was 1.9^Ref 9 M^−1s^−1.

Question: For OC1CC/C=C\CCC1 (stereo not drawn) [a], which Second-order rate constant ([2]; Aqueous solvent, ax iso) is on record?
Answer: Its Second-order rate constant is 80200 M⁻¹ s⁻¹.

Question: What about the Second-order rate constant ([2]; Aqueous solvent, eq iso) of the same compound?
Answer: Its Second-order rate constant is 22600 M⁻¹ s⁻¹.

Question: And the Second-order rate constant ([2]; Mixture (Org water) 90:10)?
Answer: The Second-order rate constant was 2000 (90:10)^Ref 5 M^−1s^−1.

Question: And the Second-order rate constant ([2]; Organic solvent)?
Answer: The Second-order rate constant was 1140^Ref 5 M^−1s^−1.

Question: For CC(C)C[C@@H](C=O)NC(=O)[C@H](CC(C)C)NC(=O)[C@H](CC(C)C)NC(=O)OCc1ccccc1 [MG132] (Cbz-Leu-Leu-Leu-aldehyde), which “effect of proteasome inhibitor pre-treatment on sTCO-PEG2-CRBN induced degradation” value (mCherry-EGFP-Y151TetF [1]) is on record?
Answer: Its value is “reduced”.

Question: Which “inhibition of MKP3” value (MKP3) does the source give for O=C1C(=Cc2ccccc2)C(NC2CCCCC2)c2ccccc21 (stereo not drawn) [BCI] here?
Answer: The value was “known allosteric inhibitor”.

Question: What about the “inhibition of DUSP1” value (DUSP1) of the same compound?
Answer: Its value is “inhibits DUSP1”.

Question: Which Second-order rate constant ([2]; Aqueous solvent, anti iso) does the source give for OCC1O[C@H]2C/C=C\CCC[C@H]2O1 (stereo partly drawn) [c] here?
Answer: The Second-order rate constant was 318000 M⁻¹ s⁻¹.

Question: And the Second-order rate constant ([2]; Aqueous solvent, syn iso)?
Answer: The Second-order rate constant was 366000 M⁻¹ s⁻¹.

Question: And the Second-order rate constant ([2]; Mixture (Org water) 55:45)?
Answer: Its Second-order rate constant is 167000 (55:45)^Ref 3 M^−1s^−1.

Question: With C=CCSC[C@H](N)C(=O)O [m] as the compound, how does the Second-order rate constant ([2]; Mixture (Org water) 50:50) read?
Answer: Its Second-order rate constant is 0.002 (50:50)^Ref 13 M^−1s^−1.

Question: Which “effect of thalidomide-OH pretreatment on sTCO-PEG2-CRBN degradation” value (mCherry-EGFP-Y151TetF [3]) does the source give for O=C1CCC(N2C(=O)c3cccc(O)c3C2=O)C(=O)N1 (stereo not drawn) [Thal-OH, thalidomide-OH] here?
Answer: The value was “reduced degradation”.

Question: With C=Cc1ccccc1 [j] as the compound, how does the Second-order rate constant ([2]; Mixture (Org water) 50:50) read?
Answer: The Second-order rate constant was 0.05 (50:50)^Ref 11 M^−1s^−1.

Question: What does the source list for OCC1[C@@H]2C/C=C\CCC[C@@H]12 (stereo partly drawn) [b]?
Answer: Second-order rate constant ([2]; Aqueous solvent): 3300000^Ref 2 M^−1s^−1; Second-order rate constant ([2]; Organic solvent): 22000^Ref 3 M^−1s^−1

Question: For O=C(NCCOCCOCCCCCCCl)OCC1C2CC/C=C/CCC21 (stereo not drawn) [sTCO-CA], which extent of bioconjugation (mCherry-EGFP-G134TetF) is on record?
Answer: Its extent of bioconjugation is ~ 55%.

Question: What about the extent of bioconjugation (mCherry-EGFP-I129TetF) of the same compound?
Answer: Its extent of bioconjugation is ~ 90%.

Question: What does the source list for OCC1[C@@H]2CCC#CCC[C@@H]12 (stereo partly drawn) [d]?
Answer: Second-order rate constant ([2]; Mixture (Org water) 55:45): 1245 (55:45)^Ref 6 M^−1s^−1; Second-order rate constant ([2]; Organic solvent): 45^Ref 4 M^−1s^−1
